Test results published in patent US20190343907A1, “Synergistic Compositions and Methods of Achieving Homeostasis in Mammalian Systems” (priority 2017, published 2019).

Tests used:
[1] = test system: migraine headaches; assay: Case history: migraine headaches; assay type: in vivo, human; conditions: prescription, same subject
From the text: A person experienced stress-induced episodes of migraine headaches five to six times/year, each preceded by a “trigger signal” of slight dizziness or light-headedness. […] The lotion of Example 1 was supplied by the subject. […] No migraine episodes have occurred in the past eight months.

[2] = test system: shingles; assay: Case history: shingles; assay type: in vivo, human; conditions: prescription taken, within 1 week
From the text: A person was diagnosed with shingles on the lower jaw and on the scalp. […] The subject was given the lotion of Example 1 with instructions to pre-treat the area with a menthol cream five minutes before applying the treatment cream. Twice daily application to the border of the shingles lesions along the axis of red streaks prevented further expansion of the […] lesions. In areas of blisters that had not ruptured, application of the treatment cream caused the blisters to recede and not rupture. […] Episodes of recurring post-herpetic neuralgia were treated successfully over the next six weeks with the cream giving reduction of redness, itching and pain.

Structure (SMILES): CNS(=O)(=O)Cc1ccc2[nH]cc(CCN(C)C)c2c1 [Sumatriptan]
- migraine pain relief [1]: slow to relieve the pain

Structure (SMILES): Nc1nc2c(ncn2COCCO)c(=O)[nH]1 [acyclovir]
- relief from pain or itching [2]: no relief from pain or itching
